Reference: publication PMC10914731, “Homo-BacPROTAC-induced degradation of ClpC1 as a strategy against drug-resistant mycobacteria” (Nature Communications, 2024)
In brackets after ≈: the same amount, converted by molar mass. Several values for one entry are separate records, joined by “and”; a condition that tells them apart may be missing. Equal values may be shown once. Read-outs that look alike come from different tables or passages of the source. *1 amine or outer side, *2 acyl side, *3 side chain or, on linkers, in order; H or OH if unused. Where a SMILES comes first, the peptide text is derived from it. [ ]: non-standard residue; d: D form. X1 = C#CCn1cc(C[C@H](N[*:1])C(=O)[*:2])c2ccccc21; NMeLeu(5-OH,4R) = CN[C@@H](C[C@@H](C)CO)C(=O)O; Phe(βR-OMe) = CO[C@H](c1ccccc1)[C@H](N)C(=O)O; Trp(1-Me) = Cn1cc(C[C@H](N)C(=O)O)c2ccccc21; NMeL = CN[C@@H](CC(C)C)C(=O)O; Pra = C#CC[C@H](N)C(=O)O

What was measured:
[1] = assay type: in vitro ADME, Mice; conditions: for Microsomal Stability Mice: clearance in microsomes
In short: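 Metabolic depletion in liver microsomes (0.5 mg/ml, 1 mM NADPH, 37 °C) starting from 1 µmol/l test compound, sampled at multiple times with acetonitrile quench. LC-MS/MS quantitation; half-life converted to %Qh.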

[2] = Hepatocyte stability, mice; assay type: in vitro ADME
In short: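 Clearance expressed as % of liver blood flow (% Qh), derived from half-life via the well-stirred liver model. Compound at 1 µM final was incubated up to 6 h with ~1 million cells/mL hepatocytes in 50% serum buffer, 37 °C, pH 7.4.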

[3] = assay type: in vitro ADME, Rat
Mtb # 11291 = assay: microbe, parasite or virus in culture; assay type: cell-based; conditions: for MIC: read-out: MIC Mtb # 11291
Salmonella typhimurium = assay: MIC ESKAPES panel, Salmonella typhimurium; assay type: cell-based
Experimental: Minimum inhibitory concentration (MIC) against ESKAPES panel of Gram positive and Gram negative pathogens (Enterococcus faecium, Staphylococcus aureus, Klebsiella pneumoniae, Acinetobacter baumannii, Pseudomonas aeruginosa, Enterobacter cloacae and Salmonella typhimurium [ESKAPES panel]) were determined at the FNDR by the standard broth dilution method [CLSI, M100]. […] Mueller Hinton broth (MHB) medium was used to grow ESKAPES panel strains. The individual cultures were added as 200 μL (inoculum of 3–7 × 10^5 cfu/ml) to the respective assay plates in each well to all columns, except the media control (200 μL of medium). […] The assay plates were incubated at 37 °C, and the results were noted on the 2nd day as turbidometric readout. The clear wells indicated inhibition of growth, while the turbid wells indicated uninhibited growth.

[4] = test system: Mycobacterium intracellulare; assay: microbe, parasite or virus in culture; assay type: cell-based
[5] = biological target: His6-tagged ClpC1-NTD substrate, M. smegmatis ClpC1P1P2 (UniProt A0R574+P9WPC9); assay: biochemical; assay type: biochemical; conditions: for degradation of the His6-tagged ClpC1-NTD substrate: cell-free, result in words; for % Response / ClpC1-NTD peak area: well replicates
Sequence of His6-tagged ClpC1-NTD substrate, M. smegmatis ClpC1P1P2 (P9WPC9 1-156, looked up, natural form): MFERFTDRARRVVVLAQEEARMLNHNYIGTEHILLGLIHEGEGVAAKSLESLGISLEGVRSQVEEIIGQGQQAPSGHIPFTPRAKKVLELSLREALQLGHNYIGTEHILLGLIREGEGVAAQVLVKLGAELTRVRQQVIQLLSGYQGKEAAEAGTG
Sequence of His6-tagged ClpC1-NTD substrate, M. smegmatis ClpC1P1P2 (A0R574 whole entry): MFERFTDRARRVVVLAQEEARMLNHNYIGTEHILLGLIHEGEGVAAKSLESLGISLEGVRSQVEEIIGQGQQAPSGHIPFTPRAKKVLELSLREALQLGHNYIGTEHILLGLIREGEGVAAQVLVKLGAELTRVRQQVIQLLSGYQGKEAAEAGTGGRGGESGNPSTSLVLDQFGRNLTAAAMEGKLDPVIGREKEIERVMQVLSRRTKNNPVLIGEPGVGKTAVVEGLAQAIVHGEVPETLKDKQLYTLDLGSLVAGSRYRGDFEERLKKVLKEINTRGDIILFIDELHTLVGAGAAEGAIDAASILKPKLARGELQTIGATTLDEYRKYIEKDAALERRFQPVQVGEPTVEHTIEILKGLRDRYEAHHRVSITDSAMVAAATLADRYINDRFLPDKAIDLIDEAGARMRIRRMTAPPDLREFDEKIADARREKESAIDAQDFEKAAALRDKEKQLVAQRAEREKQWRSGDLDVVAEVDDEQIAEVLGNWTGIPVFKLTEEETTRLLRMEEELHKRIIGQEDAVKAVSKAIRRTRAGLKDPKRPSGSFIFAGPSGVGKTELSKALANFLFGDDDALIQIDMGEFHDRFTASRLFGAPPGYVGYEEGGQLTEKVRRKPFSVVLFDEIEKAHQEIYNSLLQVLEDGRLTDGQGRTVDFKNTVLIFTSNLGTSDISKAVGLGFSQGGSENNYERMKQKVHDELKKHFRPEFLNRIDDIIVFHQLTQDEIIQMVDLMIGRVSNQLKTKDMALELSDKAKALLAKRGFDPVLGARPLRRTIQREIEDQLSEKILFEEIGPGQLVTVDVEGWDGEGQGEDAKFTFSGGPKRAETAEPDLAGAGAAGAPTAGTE

[6] = Gram-Negative Bacteria, replicates 1-3
[7] = Salmonella enterica, TYPHIMURIUM, Gram negative, n = 3 well replicates
[8] = Salmonella enterica, TYPHIMURIUM, Gram-Negative Bacteria, replicates 1-3
[9] = Experiment 1, read-out: MIC Mycobacterium intracellulare
[10] = Experiment 2, three replicate columns
[11] = Experiment 2, three replicate columns, read-out: MIC (µM) Mycobacterium intracellulare
[12] = Mycobacterium intracellulare, Experiment 1, read-out: MIC Mycobacterium intracellulare
[13] = Mycobacterium intracellulare, Experiment 2, three replicate columns, read-out: MIC (µM) Mycobacterium intracellulare
[14] = Mycobacterium intracellulare, Experiment 2, three replicate columns, read-out: MIC (µg/ml) Mycobacterium intracellulare
[15] = Mycobacterium intracellulare, mean ± SD, read-out: MIC Mycobacterium intracellulare
[16] = Msm, Measurement 1-6, read-out: DC50, single measurements
[17] = Msm, mean of the measurements, read-out: DC50, Mean
[18] = conc. 0.4 µM, Figure 4a source data
[19] = conc. 33.3 µM, Figure 4a source data
[20] = conc. 100.0 µM, Figure 4a source data

SMILES: C#CCn1cc(C[C@@H]2NC(=O)[C@H](C(C)C)NC(=O)[C@H](CC(C)C)N(C)C(=O)[C@H](C(C)C)NC(=O)[C@H]([C@H](OC)c3ccccc3)NC(=O)[C@H](C)NC(=O)[C@H](C[C@@H](C)CO)N(C)C2=O)c2ccccc21 [Compound 5] (cyclo(A[Phe(βR-OMe)]V[NMeL]V[X1][NMeLeu(5-OH,4R)]))
- Microsomal Stability Mouse QH [1]: >88.400%
- Microsomal Stability Mice [1]: > 88 %Qh
- Hepatocyte Mice ([2]; mouse, pH 7.4): 58 %Qh
- Hepatocyte Rat ([3]; rat, pH 7.4): 51 %Qh
- Hepatocyte Stability Rat QH ([3]; rat, pH 7.4): 51.066%
- MIC Mtb # 11291 (Mtb # 11291; single well replicates): 0.18 µg/mL (≈ 0.191 µM)
- MIC (Mtb # 11291; single well replicates): 0.19 µM (≈ 0.179 µg/mL)
- MIC (Salmonella typhimurium; [6]): >50 µM
- MIC (Salmonella typhimurium; [7]): > 50 µM
- MIC (Salmonella typhimurium; [8]): > 47 µg/mL
- MIC [4, 9]: 6.3 µM
- MIC (µg/ml) Mycobacterium intracellulare [4, 10]: 5.88 µg/mL (≈ 6.25 µM)
- MIC [4, 11]: 6.25 µM
- MIC [4, 12]: 5.9 µg/mL
- MIC [4, 13]: 6.25 µM
- MIC [4, 14]: 5.88 µg/mL
- MIC [4, 15]: 6.3 µM
- DC50 [5, 16]: > 100 µM
- DC50 [5, 17]: > 100 µM
- degradation of the His6-tagged ClpC1-NTD substrate [5]: did not cause any degradation
- % Response [5, 18]: 116.842% and 113.028% and 105.03% and 119.052% and 111.716% and 114.137% and 123.793% and 118.108% and 117.25%
- ClpC1-NTD peak area [5, 18]: 640826 and 655003 and 1857813 and 1613203 and 1512289 and 674239 and 595770 and 768891 and 644662
- % Response [5, 19]: 90.9541% and 97.3128% and 94.2061% and 106.414% and 99.6024% and 104.896% and 117.254% and 102.794% and 105.872%
- ClpC1-NTD peak area [5, 19]: 584244 and 637952 and 1853168 and 1510772 and 1477984 and 564418 and 575020 and 543552 and 642219
- % Response [5, 20]: 105.654% and 87.8451% and 96.6012% and 102.875% and 103.779% and 107.689% and 115.982% and 114.344% and 115.781%
- ClpC1-NTD peak area [5, 20]: 756908 and 694227 and 2586172 and 1761383 and 2099655 and 509578 and 446745 and 481433 and 842128

SMILES: CO[C@H](c1ccccc1)[C@@H]1NC(=O)[C@H](C)NC(=O)[C@H](C[C@@H](C)CO)N(C)C(=O)[C@H](Cc2cn(Cc3cn(CCOCCn4cc(Cn5cc(C[C@@H]6NC(=O)[C@H](C(C)C)NC(=O)[C@H](CC(C)C)N(C)C(=O)[C@H](C(C)C)NC(=O)[C@H]([C@H](OC)c7ccccc7)NC(=O)[C@H](C)NC(=O)[C@H](C[C@@H](C)CO)N(C)C6=O)c6ccccc65)nn4)nn3)c3ccccc23)NC(=O)[C@H](C(C)C)NC(=O)[C@H](CC(C)C)N(C)C(=O)[C@H](C(C)C)NC1=O [Compound 6]
- Microsomal Stability Mouse QH [1]: 42.900%
- Microsomal Stability Mice [1]: 43 %Qh
- Hepatocyte Mice ([2]; clearance in hepatocytes): 15 %Qh
- Hepatocyte Rat ([3]; clearance in hepatocytes): 6 %Qh
- 1-Dmax, single measurements ([5]; Msm, Measurement 1-6): 73.6% and 67.7% and 87.3%
- 1-Dmax (percent substrate remaining at maximal degradation) ([5]; Msm, Measurement 1-6, read-out: 1-Dmax, single measurements): 83.7%
- 1-Dmax (percent substrate remaining at maximal degradation) ([5]; Msm, mean of the measurements, read-out: 1-Dmax, Mean): 78%
- DC50 [5, 17]: 7.5 µM

SMILES: C#CC[C@@H]1NC(=O)[C@H](CC(C)C)N(C)C(=O)[C@H](C(C)C)NC(=O)[C@H]([C@H](OC)c2ccccc2)NC(=O)[C@H](C)NC(=O)[C@H](C[C@@H](C)CO)N(C)C(=O)[C@H](Cc2cn(C)c3ccccc23)NC1=O [Compound 10] (cyclo(A[Phe(βR-OMe)]V[NMeL][Pra][Trp(1-Me)][NMeLeu(5-OH,4R)]))
- Microsomal Stability Mouse QH [1]: >88.400%
- Microsomal Stability Mice [1]: > 88 %Qh
- Hepatocyte Stability Mouse QH ([2]; Mouse): 64.420%
- Hepatocyte Mice ([2]; clearance in hepatocytes): 64 %Qh
- Hepatocyte Stability Rat QH ([3]; Rat): 69.830%
- Hepatocyte Rat ([3]; clearance in hepatocytes): 70 %Qh
- MIC Mtb # 11291 (Mtb # 11291; single well replicates): 0.36 µg/mL (≈ 0.394 µM)
- MIC (Mtb # 11291; single well replicates): 0.39 µM (≈ 0.356 µg/mL)
- MIC (Salmonella typhimurium; [6]): >50 µM
- MIC (Salmonella typhimurium; [7]): > 50 µM
- MIC (Salmonella typhimurium; [8]): > 45.6 µg/mL
- MIC [4, 9]: 12.5 µM
- MIC (µg/ml) Mycobacterium intracellulare [4, 10]: 11.41 µg/mL (≈ 12.5 µM)
- MIC [4, 11]: 12.5 µM
- MIC [4, 12]: 11.4 µg/mL
- MIC [4, 13]: 12.5 µM
- MIC [4, 14]: 11.4 µg/mL
- MIC [4, 15]: 12.5 µM
- % Response ([5]; 0.4 µM, ClpC1-NTD/ClpP1P2 peak area normalized to DMSO): 107.165% and 105.713% and 105.534% and 109.793% and 112.635% and 106.598% and 107.262% and 106.323% and 113.228%
- % Response ([5]; 33.3 µM, ClpC1-NTD/ClpP1P2 peak area normalized to DMSO): 86.4131% and 86.1435% and 98.0091% and 93.8962% and 86.1584% and 100.044% and 99.6955% and 103.875% and 103.346%
- % Response ([5]; 100.0 µM, ClpC1-NTD/ClpP1P2 peak area normalized to DMSO): 86.569% and 107.836% and 89.4261% and 92.9238% and 99.5573% and 96.5131% and 88.7968% and 92.196% and 104.007%
- DC50 [5, 16]: > 100 µM
- DC50 [5, 17]: > 100 µM
- degradation of the His6-tagged ClpC1-NTD substrate [5]: did not cause any degradation

SMILES: COc1c(N2C[C@@H]3CCCN[C@@H]3C2)c(F)cc2c(=O)c(C(=O)O)cn(C3CC3)c12 [Moxifloxacin, reference compound]
- MIC (Mtb # 11291; Mycobacterium tuberculosis, mean, n = 2 well replicates): 0.2 µM (≈ 0.0803 µg/mL)
- MIC (Mtb # 11291; Mycobacterium tuberculosis, single well replicates): 0.24 µM (≈ 0.0963 µg/mL)
- MIC Mtb # 11291 (Mtb # 11291; single well replicates): 0.10 µg/mL (≈ 0.249 µM)
- MIC (Mtb # 11291; single well replicates): 0.24 µM (≈ 0.0963 µg/mL)
- MIC (Salmonella typhimurium; [7]): 0.6 µM
- MIC (Salmonella typhimurium; [8]): 0.62 µM and 0.25 µg/mL
- MIC (µg/ml) Mycobacterium intracellulare [4, 10]: 0.50 µg/mL (≈ 1.25 µM)
- MIC [4, 11]: 1.25 µM
- MIC [4, 12]: 1.25 µM and 0.5 µg/mL
- MIC [4, 13]: 1.25 µM
- MIC [4, 14]: 0.5 µg/mL
- MIC [4, 15]: 1.2 µM
